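All cell lines were grown in 96-well plates and treated with compound for 48 hours. TGI marks complete inhibition of growth.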
Assays:
Assay in all cases: DTP human tumour cell line panel, 48 h
SNB-19 CNS = tested on: SNB-19 CNS
A498 renal = tested on: A498 renal
COLO 205 colon = tested on: COLO 205 colon
HOP-92 NSCLC = tested on: HOP-92 NSCLC
SN12C renal = tested on: SN12C renal
ACHN renal = tested on: ACHN renal
RPMI-8226 leukemia = tested on: RPMI-8226 leukemia
SK-MEL-28 melanoma = tested on: SK-MEL-28 melanoma
M14 melanoma = tested on: M14 melanoma
UACC-62 melanoma = tested on: UACC-62 melanoma
A549 NSCLC = tested on: A549 NSCLC
CAKI-1 renal = tested on: CAKI-1 renal
U251 CNS = tested on: U251 CNS
NCI-H522 lung = tested on: NCI-H522 lung
OVCAR-8 ovarian = tested on: OVCAR-8 ovarian
SW-620 colon = tested on: SW-620 colon
K-562 leukemia = tested on: K-562 leukemia
PC-3 prostate = tested on: PC-3 prostate
RXF 393 renal = tested on: RXF 393 renal
OVCAR-5 ovarian = tested on: OVCAR-5 ovarian
MOLT-4 leukemia = tested on: MOLT-4 leukemia
DU-145 prostate = tested on: DU-145 prostate
EKVX NSCLC = tested on: EKVX NSCLC
786-0 renal = tested on: 786-0 renal
SF-268 CNS = tested on: SF-268 CNS
HCT-15 colon = tested on: HCT-15 colon
TK-10 renal = tested on: TK-10 renal
HS 578T breast = tested on: HS 578T breast
SR leukemia = tested on: SR leukemia
HCC-2998 colon = tested on: HCC-2998 colon
MCF7 breast = tested on: MCF7 breast
MALME-3M melanoma = tested on: MALME-3M melanoma
NCI/ADR-RES ovarian = tested on: NCI/ADR-RES ovarian
T-47D breast = tested on: T-47D breast
KM12 colon = tested on: KM12 colon
SF-295 CNS = tested on: SF-295 CNS
LOX IMVI melanoma = tested on: LOX IMVI melanoma
NCI-H226 lung = tested on: NCI-H226 lung
NCI-H460 lung = tested on: NCI-H460 lung
HOP-62 NSCLC = tested on: HOP-62 NSCLC
MDA-N = tested on: MDA-N
HCT-116 colon = tested on: HCT-116 colon
UO-31 renal = tested on: UO-31 renal
HT29 colon = tested on: HT29 colon
IGROV1 ovarian = tested on: IGROV1 ovarian
SK-OV-3 ovarian = tested on: SK-OV-3 ovarian
UACC-257 melanoma = tested on: UACC-257 melanoma
SK-MEL-5 melanoma = tested on: SK-MEL-5 melanoma
NCI-H23 lung = tested on: NCI-H23 lung
SF-539 CNS = tested on: SF-539 CNS
MDA-MB-435 = tested on: MDA-MB-435
SK-MEL-2 melanoma = tested on: SK-MEL-2 melanoma
OVCAR-3 ovarian = tested on: OVCAR-3 ovarian
CCRF-CEM leukemia = tested on: CCRF-CEM leukemia
OVCAR-4 ovarian = tested on: OVCAR-4 ovarian
MDA-MB-231 breast = tested on: MDA-MB-231 breast
SNB-75 CNS = tested on: SNB-75 CNS
HL-60(TB) leukemia = tested on: HL-60(TB) leukemia

With `CC(=O)Oc1cc2c[n+](C)c3c4cc(OC(C)=O)c(OC(C)=O)cc4ccc3c2cc1OC(C)=O` the TGI (SNB-19 CNS) was > 100 µM, the TGI (A498 renal) was > 65.3 µM and the TGI (COLO 205 colon) was > 100 µM. For the same molecule, the TGI (HOP-92 NSCLC) was > 100 µM, the TGI (SN12C renal) was > 100 µM and the TGI (ACHN renal) was > 100 µM. For the same molecule, the TGI (RPMI-8226 leukemia) was > 100 µM, the TGI (SK-MEL-28 melanoma) was > 100 µM and the TGI (M14 melanoma) was > 48.4 µM. The TGI (UACC-62 melanoma) was > 100 µM, the TGI (A549 NSCLC) was > 100 µM and the TGI (CAKI-1 renal) was > 100 µM. For the same molecule, the TGI (U251 CNS) was > 100 µM, the TGI (NCI-H522 lung) was > 100 µM and the TGI (OVCAR-8 ovarian) was > 100 µM. The TGI (SW-620 colon) was > 100 µM, the TGI (K-562 leukemia) was > 100 µM and the TGI (PC-3 prostate) was > 100 µM. For the same molecule, the TGI (RXF 393 renal) was 11 µM, the TGI (OVCAR-5 ovarian) was > 50.1 µM and the TGI (MOLT-4 leukemia) was > 100 µM. The TGI (DU-145 prostate) was > 100 µM, the TGI (EKVX NSCLC) was 73.4 µM and the TGI (786-0 renal) was > 100 µM. The TGI (SF-268 CNS) was > 100 µM, the TGI (HCT-15 colon) was > 100 µM and the TGI (TK-10 renal) was > 100 µM. The TGI (HS 578T breast) was > 100 µM, the TGI (SR leukemia) was > 100 µM and the TGI (HCC-2998 colon) was > 100 µM. The TGI (MCF7 breast) was > 100 µM, the TGI (MALME-3M melanoma) was > 100 µM and the TGI (NCI/ADR-RES ovarian) was > 100 µM. For the same molecule, the TGI (T-47D breast) was > 100 µM, the TGI (KM12 colon) was > 100 µM and the TGI (SF-295 CNS) was > 57.8 µM. For the same molecule, the TGI (LOX IMVI melanoma) was > 100 µM, the TGI (NCI-H226 lung) was > 100 µM and the TGI (NCI-H460 lung) was > 100 µM. The TGI (HOP-62 NSCLC) was > 100 µM, the TGI (MDA-N) was > 100 µM and the TGI (HCT-116 colon) was > 32.5 µM. The TGI (UO-31 renal) was 9.46 µM, the TGI (HT29 colon) was 26.2 µM and the TGI (IGROV1 ovarian) was > 100 µM. The TGI (SK-OV-3 ovarian) was > 100 µM, the TGI (UACC-257 melanoma) was > 100 µM and the TGI (SK-MEL-5 melanoma) was > 61.4 µM. For the same molecule, the TGI (NCI-H23 lung) was > 100 µM.

In the case of `COC(=O)CCCc1ccc2c(c1)CC1(Cc3ccccc3C1)C2`, the TGI (A498 renal) was > 100 µM, the TGI (COLO 205 colon) was 62.5 µM and the TGI (HOP-92 NSCLC) was > 100 µM. For the same molecule, the TGI (SN12C renal) was > 100 µM, the TGI (ACHN renal) was > 100 µM and the TGI (RPMI-8226 leukemia) was 85.5 µM. The TGI (M14 melanoma) was > 100 µM, the TGI (UACC-62 melanoma) was > 100 µM and the TGI (A549 NSCLC) was > 100 µM. For the same molecule, the TGI (U251 CNS) was > 100 µM, the TGI (NCI-H522 lung) was > 100 µM and the TGI (SF-539 CNS) was > 100 µM. The TGI (OVCAR-8 ovarian) was > 100 µM, the TGI (PC-3 prostate) was > 100 µM and the TGI (RXF 393 renal) was > 100 µM. For the same molecule, the TGI (OVCAR-5 ovarian) was > 100 µM, the TGI (MDA-MB-435) was 61.1 µM and the TGI (MOLT-4 leukemia) was 15.5 µM. For the same molecule, the TGI (EKVX NSCLC) was > 100 µM, the TGI (786-0 renal) was > 100 µM and the TGI (SK-MEL-2 melanoma) was 56.1 µM. The TGI (HCT-15 colon) was 97.3 µM, the TGI (TK-10 renal) was > 100 µM and the TGI (HS 578T breast) was > 100 µM. The TGI (HCC-2998 colon) was > 100 µM, the TGI (MCF7 breast) was > 100 µM and the TGI (MALME-3M melanoma) was > 100 µM. The TGI (OVCAR-3 ovarian) was > 100 µM, the TGI (NCI/ADR-RES ovarian) was > 100 µM and the TGI (T-47D breast) was > 100 µM. The TGI (KM12 colon) was > 100 µM, the TGI (SF-295 CNS) was > 100 µM and the TGI (LOX IMVI melanoma) was > 100 µM. The TGI (NCI-H226 lung) was > 100 µM, the TGI (CCRF-CEM leukemia) was 71.6 µM and the TGI (HOP-62 NSCLC) was > 100 µM. For the same molecule, the TGI (MDA-N) was 53.6 µM, the TGI (HCT-116 colon) was 78.6 µM and the TGI (UO-31 renal) was > 100 µM. For the same molecule, the TGI (HT29 colon) was > 100 µM, the TGI (IGROV1 ovarian) was > 100 µM and the TGI (OVCAR-4 ovarian) was > 100 µM. The TGI (SK-OV-3 ovarian) was > 100 µM, the TGI (UACC-257 melanoma) was > 100 µM and the TGI (SK-MEL-5 melanoma) was 59.7 µM. For the same molecule, the TGI (MDA-MB-231 breast) was > 100 µM and the TGI (NCI-H23 lung) was > 100 µM.

For `COC(=O)[C@@H](NC1(c2ccccc2)c2ccccc2-c2ccccc21)[C@H](OC(=O)[C@H]1CCCN1S(=O)(=O)c1ccccc1)C(=O)OC`, the TGI (SNB-75 CNS) was > 100 µM, the TGI (SNB-19 CNS) was > 100 µM and the TGI (A498 renal) was > 100 µM. The TGI (COLO 205 colon) was > 100 µM, the TGI (HOP-92 NSCLC) was 84.1 µM and the TGI (SN12C renal) was > 100 µM. The TGI (ACHN renal) was > 100 µM, the TGI (SK-MEL-28 melanoma) was > 100 µM and the TGI (M14 melanoma) was > 100 µM. For the same molecule, the TGI (UACC-62 melanoma) was > 100 µM, the TGI (A549 NSCLC) was > 100 µM and the TGI (U251 CNS) was > 100 µM. The TGI (NCI-H522 lung) was > 100 µM, the TGI (SF-539 CNS) was > 100 µM and the TGI (OVCAR-8 ovarian) was > 100 µM. For the same molecule, the TGI (SW-620 colon) was > 100 µM, the TGI (K-562 leukemia) was > 100 µM and the TGI (PC-3 prostate) was > 100 µM. For the same molecule, the TGI (RXF 393 renal) was > 100 µM, the TGI (OVCAR-5 ovarian) was > 100 µM and the TGI (MDA-MB-435) was > 100 µM. The TGI (MOLT-4 leukemia) was > 100 µM, the TGI (DU-145 prostate) was > 100 µM and the TGI (EKVX NSCLC) was > 100 µM. For the same molecule, the TGI (786-0 renal) was > 100 µM, the TGI (SK-MEL-2 melanoma) was > 100 µM and the TGI (SF-268 CNS) was > 100 µM. The TGI (HCT-15 colon) was > 100 µM, the TGI (TK-10 renal) was > 100 µM and the TGI (SR leukemia) was > 100 µM. For the same molecule, the TGI (HCC-2998 colon) was > 100 µM, the TGI (MCF7 breast) was > 100 µM and the TGI (MALME-3M melanoma) was > 100 µM. The TGI (HL-60(TB) leukemia) was > 100 µM, the TGI (OVCAR-3 ovarian) was > 100 µM and the TGI (NCI/ADR-RES ovarian) was > 100 µM. The TGI (T-47D breast) was > 100 µM, the TGI (KM12 colon) was > 100 µM and the TGI (SF-295 CNS) was > 100 µM. The TGI (LOX IMVI melanoma) was > 100 µM, the TGI (NCI-H226 lung) was > 100 µM and the TGI (NCI-H460 lung) was > 100 µM. For the same molecule, the TGI (CCRF-CEM leukemia) was > 100 µM, the TGI (HOP-62 NSCLC) was > 100 µM and the TGI (MDA-N) was > 100 µM. The TGI (HCT-116 colon) was > 100 µM, the TGI (UO-31 renal) was > 100 µM and the TGI (HT29 colon) was > 100 µM. The TGI (IGROV1 ovarian) was > 100 µM, the TGI (OVCAR-4 ovarian) was > 100 µM and the TGI (SK-OV-3 ovarian) was > 100 µM. The TGI (UACC-257 melanoma) was > 100 µM, the TGI (SK-MEL-5 melanoma) was > 100 µM and the TGI (MDA-MB-231 breast) was > 100 µM. For the same molecule, the TGI (NCI-H23 lung) was > 100 µM.
